From patent US7091033B2, “Array of toxicologically relevant canine genes and uses thereof” (Phase-1 Molecular Toxicology, Inc., priority 2000, dated 2006)

Tested on: canine genes differentially expressed in organs (liver, spleen, kidney, testes, heart, thymus)
Assay: Transcriptome profiling / differential display of tissues from canines exposed to an agent versus vehicle (reverse transcription, PCR, reamplification of bands, sequencing)
Type: in vivo
[1] = Band # CTP60B, Homo sapiens RNA bindii XM_016120
[2] = Band # CTP65A, Pig mRNA for endoplasm X16951
[3] = Band # CTP74A, No significant match
[4] = Band # CTP75C, No significant match
[5] = Band # CTP85D, Homo sapiens Rho-assoc XM_008814
[6] = Band # CTP122I, Human mRNA for KIAA0(D26067)
[7] = Band # CTP185C, No significant match
[8] = Band # CTP206A, Homo sapiens fatty acid c NM_013402

N.N.[Cl][Pt+2][Cl] [transplatin]
Expression Pattern [1]: repressed with carbo and trans platin | Expression Pattern [2]: repressed with carbo and trans platin | Expression Pattern [3]: repressed with carbo, trans and cisplatin | Expression Pattern [4]: repressed with carbo, trans and cisplatin | Expression Pattern [5]: repressed with carbo, trans and cisplatin | Expression Pattern [6]: repressed with carbo and transplatin | Expression Pattern (Band # CTP129A, Homo sapiens, Similar to BC007583): induced with transplatin | Expression Pattern [7]: induced with carbo and trans platin | Expression Pattern [8]: repressed with carbo and transplatin | Expression Pattern (Band # CTP208B, No significant match): induced with transplatin | Expression Pattern (dog, in vivo): repressed with carbo and trans platin

CC(=O)Oc1ccccc1C(=O)O [aspirin]
Expression Pattern (Band # CTP1D, No significant match): upregulated with Etoposide, caffeine | Expression Pattern (Band # CTP1G, No significant match): upregulated with Etoposide, caffeine | Expression Pattern (Band # CTP3B, Homo Sapien N-myc dow BC003175, larger band of doublet): doublet-larger band is upregulated | Expression Pattern (Band # CTP25D, No significant match): repressed with caffeine and aspirin | Expression Pattern (Band # CTP26A, Canis familiaris chymase U89607): repressed with caffeine and aspirin | Expression Pattern (Band # CTP26B, H. sapiens cycA gene for X68303): repressed with caffeine and aspirin | Expression Pattern (Band # CTP27C, Homo sapiens CTCL turn AF177227): repressed with etoposide and aspirin | Expression Pattern (Band # CTP32D, cDNA FLJ14795 fls, clone AK027701): repressed with caffeine and aspirin | Expression Pattern (Band # CTP144B, No significant match): repressed with caffeine and aspirin | Expression Pattern (Band # CTP145B, No significant match): repressed with aspirin | Expression Pattern (Band # CTP148B, Homo sapiens serine-thre AF108830): induced with aspirin | Expression Pattern (Band # CTP161B, Canis familiaris TCTA ger AJ012166): induced with aspirin | Expression Pattern (Band # CTP164A, No significant match): induced with aspirin | Expression Pattern (Band # CTP215B, No significant match): induced with aspirin | Expression Pattern (Band # CTP222D, No significant match): induced with aspirin

N.N.O=C([O-])C1(C(=O)[O-])CCC1.[Pt+2] [carboplatin]
Expression Pattern (Band # CTP28D, Homo sapiens upstream INM_014517): repressed in carboplatin | Expression Pattern (Band # CTP30E, Homo sapiens BAC clone AC003083): repressed in carboplatin | Expression Pattern (Band # CTP58A, No significant match): repressed with carboplatin | Expression Pattern [1]: repressed with carbo and trans platin | Expression Pattern [2]: repressed with carbo and trans platin | Expression Pattern (Band # CTP71A, Canis familiaris caveolin- U47060): induced with carboplatin | Expression Pattern [3]: repressed with carbo, trans and cisplatin | Expression Pattern [4]: repressed with carbo, trans and cisplatin | Expression Pattern [5]: repressed with carbo, trans and cisplatin | Expression Pattern [6]: repressed with carbo and transplatin | Expression Pattern (Band # CTP178B, Homo sapiens mRNA for AB040957): induced with carboplatin | Expression Pattern (Band # CTP179K, No significant match): induced with carboplatin | Expression Pattern [7]: induced with carbo and trans platin | Expression Pattern (Band # CTP197A, No significant match): induced with carboplatin | Expression Pattern (Band # CTP201B, Homo sapiens, exostoses BC001174): induced with carboplatin | Expression Pattern (Band # CTP202C, No significant match): induced with carboplatin | Expression Pattern (Band # CTP205D, Homo sapiens similar to XM_011187): induced with carboplatin | Expression Pattern [8]: repressed with carbo and transplatin | Expression Pattern (dog, in vivo): repressed with carbo and trans platin

N.N.[Cl][Pt][Cl] [cisplatin]
Expression Pattern (Band # CTP31A, No significant match): upregulated in cisplatin | Expression Pattern (Band # CTP41B, Homo sapiens mRNA for AB037813): repressed in cisplatin | Expression Pattern (Band # CTP47G, No significant match): induced with cisplatin | Expression Pattern (Band # CTP50A, No significant match): induced with cisplatin | Expression Pattern (Band # CTP51A, Homo sapiens intestinal 1 AF219991): induced with cisplatin | Expression Pattern (Band # CTP52B, No significant match): induced with cisplatin | Expression Pattern (Band # CTP53A, No significant match): induced with cisplatin | Expression Pattern (Band # CTP59A, Homo sapiens cyclin D2 (XM_012143)): induced with cisplatin | Expression Pattern (Band # CTP62A, No significant match): induced with cisplatin | Expression Pattern (Band # CTP63A, No significant match): induced with cisplatin | Expression Pattern (Band # CTP64B, No significant match): induced with cisplatin | Expression Pattern (Band # CTP67A, clone RP5-1071L10 on cl AL133228): repressed with cisplatin | Expression Pattern (Band # CTP68F, Oryctolagus cuniculus Ne U09823): repressed with cisplatin | Expression Pattern (Band # CTP70A, No significant match): repressed with cisplatin | Expression Pattern (Band # CTP72B, No significant match): repressed with cisplatin | Expression Pattern (Band # CTP73A, Homo sapiens chromosor AC026201): repressed with cisplatin | Expression Pattern (Band # CTP73B, No significant match): repressed with cisplatin | Expression Pattern [3]: repressed with carbo, trans and cisplatin | Expression Pattern [4]: repressed with carbo, trans and cisplatin | Expression Pattern (Band # CTP76B, No significant match): induced with cisplatin | Expression Pattern (Band # CTP77D, No significant match): repressed with cisplatin | Expression Pattern (Band # CTP78B, Homo sapiens SON DNA XM_009738): induced with cisplatin | Expression Pattern (Band # CTP79B, No significant match): induced with cisplatin | Expression Pattern (Band # CTP80A, Homo sapiens WDR4 ger AB039887): repressed with cisplatin | Expression Pattern (Band # CTP81A, No significant match): induced with cisplatin | Expression Pattern [5]: repressed with carbo, trans and cisplatin | Expression Pattern (Band # CTP86F, Homo sapiens chromodoi NM_001272): induced with cisplatin | Expression Pattern (Band # CTP87B, Homo sapiens tetratricopi XM_009760): induced with cisplatin | Expression Pattern (Band # CTP88A, Rattus norvegicus ribosor NM_022506): repressed with cisplatin | Expression Pattern (Band # CTP89B, Homo sapiens genomic [AP003473): induced with cisplatin | Expression Pattern (Band # CTP90A, Homo sapiens clone 248(AF070622)): induced with cisplatin | Expression Pattern (Band # CTP92A, No significant match): induced with cisplatin | Expression Pattern (Band # CTP92C, Human DNA sequence fn AL133286): induced with cisplatin | Expression Pattern (Band # CTP93F, clone RP1-211D12 on ch Z93016): induced with cisplatin | Expression Pattern (Band # CTP94B, Homo sapiens clathrin, h NM_008305): induced with cisplatin | Expression Pattern (Band # CTP99A, No significant match): repressed with cisplatin | Expression Pattern (Band # CTP100A, COX15 (yeast) homolog, BC002382): induced with cisplatin | Expression Pattern (Band # CTP103JJ, No significant match): induced with cisplatin | Expression Pattern (Band # CTP104I, No significant match): repressed with cisplatin | Expression Pattern (Band # CTP109P, No significant match): induced with cisplatin | Expression Pattern (Band # CTP110A, No significant match): induced with cisplatin | Expression Pattern (Band # CTP111A, No significant match): induced with cisplatin | Expression Pattern (Band # CTP112B, Bos taurus peroxiredoxin AF305561): induced with cisplatin | Expression Pattern (Band # CTP113A, Box taurus ribosomal proi AF063243): induced with cisplatin | Expression Pattern (Band # CTP115B, Homo sapiens chromosoi AC005899): induced with cisplatin | Expression Pattern (Band # CTP116A, No significant match): induced with cisplatin | Expression Pattern (Band # CTP117B, Homo sapiens similar to XM_017740): induced with cisplatin | Expression Pattern (Band # CTP119J, H. sapiens SPR-2 mRNA 1X68560 S52): induced with cisplatin | Expression Pattern (Band # CTP121D, Human ribosomal protein U43701): induced with cisplatin | Expression Pattern (Band # CTP124B, No significant match): induced with cisplatin | Expression Pattern (Band # CTP126A, No significant match): induced with cisplatin | Expression Pattern (Band # CTP131B, Homo sapiens similar to s XM_006087): induced with cisplatin | Expression Pattern (Band # CTP133B, No significant match): induced with cisplatin | Expression Pattern (Band # CTP134A, No significant match): induced with cisplatin | Expression Pattern (Band # CTP135A, Homo sapiens cDNA FLJAK021570): induced with cisplatin | Expression Pattern (Band # CTP300B, Homo sapiens utrophin (I-NM_007124)): repressed with cisplatin | Expression Pattern (Band # CTP304B, Homo sapiens unknov XM_002211): induced with cisplatin | Expression Pattern (Band # CTP306B, No significant match): induced with cisplatin | Expression Pattern (Band # CTP308KK, No significant match): induced with cisplatin | Expression Pattern (Band # CTP309A, No significant match): repressed with cisplatin
